PubChem BioAssay AID1963867 (Molecular Pharmacology Branch, DTP, NCI, 2024)

System: KRAS-mutant PDC tumor spheroid with HUVEC/MSC, viability
Assay: Anticancer human tumor 327498-153-R-J2-PDC patient-derived uterine carcinosarcoma cell line growth inhibition [KRAS2]
Settings: for IC50: curve of first compound; for viability, T/C: stronger effect = lower value
Summary of the method: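 KRAS-mutant tumor cells were grown as spheroids with HUVEC endothelial cells and human MSCs as stroma. Targeted agents were tested alone and with KRAS pathway inhibitors. Doses started at or near clinical Cmax, or 10 microM, descending half-log.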

[1] = second compound 0.1 µM, first compound 0.0316 µM
[2] = second compound 0.1 µM, first compound 0.1 µM
[3] = second compound 0.1 µM, first compound 0.316 µM
[4] = second compound 0.1 µM, first compound 1 µM
[5] = second compound 0.1 µM, first compound 3.16 µM
[6] = second compound 0.1 µM, first compound 10 µM
[7] = second compound 0.316 µM, first compound 0.0316 µM
[8] = second compound 0.316 µM, first compound 0.1 µM
[9] = second compound 0.316 µM, first compound 0.316 µM
[10] = second compound 0.316 µM, first compound 1 µM
[11] = second compound 0.316 µM, first compound 3.16 µM
[12] = second compound 0.316 µM, first compound 10 µM
[13] = second compound 1 µM, first compound 0.0316 µM
[14] = second compound 1 µM, first compound 0.1 µM
[15] = second compound 1 µM, first compound 0.316 µM
[16] = second compound 1 µM, first compound 1 µM
[17] = second compound 1 µM, first compound 3.16 µM
[18] = second compound 1 µM, first compound 10 µM
[19] = second compound 3.16 µM, first compound 0.0316 µM
[20] = second compound 3.16 µM, first compound 0.1 µM
[21] = second compound 3.16 µM, first compound 0.316 µM
[22] = second compound 3.16 µM, first compound 1 µM
[23] = second compound 3.16 µM, first compound 3.16 µM
[24] = second compound 3.16 µM, first compound 10 µM
[25] = second compound 10 µM, first compound 0.0316 µM
[26] = second compound 10 µM, first compound 0.1 µM
[27] = second compound 10 µM, first compound 0.316 µM
[28] = second compound 10 µM, first compound 1 µM
[29] = second compound 10 µM, first compound 3.16 µM
[30] = second compound 10 µM, first compound 10 µM
[31] = second compound 0.1 µM, first compound 0.01 µM
[32] = second compound 0.316 µM, first compound 0.01 µM
[33] = second compound 1 µM, first compound 0.01 µM
[34] = second compound 3.16 µM, first compound 0.01 µM
[35] = second compound 10 µM, first compound 0.01 µM
[36] = second compound 0.1 µM, first compound 0.00316 µM
[37] = second compound 0.316 µM, first compound 0.00316 µM
[38] = second compound 1 µM, first compound 0.00316 µM
[39] = second compound 3.16 µM, first compound 0.00316 µM
[40] = second compound 10 µM, first compound 0.00316 µM
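Note: spheroids exposed to agents for seven days before reading.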
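Throughout, for viability, T/C: 100% = DMSO vehicle wells so lower means fewer viable cells.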

Compound: CC(C)NCC(C(=O)N1CCN(c2ncnc3c2C(C)CC3O)CC1)c1ccc(Cl)cc1 (stereo not given) + CNCc1ccccc1-c1csc(C(C)Nc2nc(C)nc3cc(OC)c(OC)cc23)c1
- IC50 (second compound 0.1 µM): 216 nM
- IC50 (second compound 0.316 µM): 147 nM
- IC50 (second compound 1 µM): 115 nM
- IC50 (second compound 3.16 µM): < 31.6 nM
- IC50 (second compound 10 µM): < 31.6 nM
- viability, T/C [1]: 77.9%
- viability, T/C [2]: 55.6%
- viability, T/C [3]: 45%
- viability, T/C [4]: 34.7%
- viability, T/C [5]: 26.4%
- viability, T/C [6]: 15%
- viability, T/C [7]: 63.6%
- viability, T/C [8]: 55.1%
- viability, T/C [9]: 40.9%
- viability, T/C [10]: 27.5%
- viability, T/C [11]: 22.1%
- viability, T/C [12]: 14.6%
- viability, T/C [13]: 66.3%
- viability, T/C [14]: 52.5%
- viability, T/C [15]: 36.1%
- viability, T/C [16]: 24.6%
- viability, T/C [17]: 18.2%
- viability, T/C [18]: 11.5%
- viability, T/C [19]: 0.12%
- viability, T/C [20]: 0.09%
- viability, T/C [21]: 0.09%
- viability, T/C [22]: 0.07%
- viability, T/C [23]: 0.3%
- viability, T/C [24]: 0.16%
- viability, T/C [25]: 0.23%
- viability, T/C [26]: 0.44%
- viability, T/C [27]: 0.16%
- viability, T/C [28]: 0.16%
- viability, T/C [29]: 0.16%
- viability, T/C [30]: 0.23%

Compound: CC1COCCN1c1cc(-c2ccnn2C)c2ccnc(-c3ccn[nH]3)c2n1 (stereo not given) + CNCc1ccccc1-c1csc(C(C)Nc2nc(C)nc3cc(OC)c(OC)cc23)c1
- IC50 (second compound 0.1 µM): 23.5 nM
- IC50 (second compound 0.316 µM): 17.9 nM
- IC50 (second compound 1 µM): 15 nM
- IC50 (second compound 3.16 µM): < 10 nM
- IC50 (second compound 10 µM): < 10 nM
- viability, T/C [31]: 80%
- viability, T/C [1]: 39.5%
- viability, T/C [2]: 9.19%
- viability, T/C [3]: 5.57%
- viability, T/C [4]: 5.53%
- viability, T/C [5]: 5.04%
- viability, T/C [32]: 66.6%
- viability, T/C [7]: 33.8%
- viability, T/C [8]: 11.5%
- viability, T/C [9]: 5.05%
- viability, T/C [10]: 5.87%
- viability, T/C [11]: 5.3%
- viability, T/C [33]: 62.9%
- viability, T/C [13]: 26.7%
- viability, T/C [14]: 9.86%
- viability, T/C [15]: 4.09%
- viability, T/C [16]: 3.98%
- viability, T/C [17]: 1.03%
- viability, T/C [34]: 0.09%
- viability, T/C [19]: 0.07%
- viability, T/C [20]: 0.05%
- viability, T/C [21]: 0.71%
- viability, T/C [22]: 0.03%
- viability, T/C [23]: 0.13%
- viability, T/C [35]: 0.13%
- viability, T/C [25]: 0.13%
- viability, T/C [26]: 0.13%
- viability, T/C [27]: 0.12%
- viability, T/C [28]: 0.12%
- viability, T/C [29]: 0.21%

Compound: CCN1CCN(Cc2ccc(Nc3ncc(F)c(-c4cc(F)c5nc(C)n(C(C)C)c5c4)n3)nc2)CC1 + CNCc1ccccc1-c1csc(C(C)Nc2nc(C)nc3cc(OC)c(OC)cc23)c1
- IC50 (second compound 0.1 µM): 42.9 nM
- IC50 (second compound 0.316 µM): 13.1 nM
- IC50 (second compound 1 µM): 9.26 nM
- IC50 (second compound 3.16 µM): < 3.16 nM
- IC50 (second compound 10 µM): < 3.16 nM
- viability, T/C [36]: 65.2%
- viability, T/C [31]: 58.8%
- viability, T/C [1]: 52.9%
- viability, T/C [2]: 37.5%
- viability, T/C [3]: 41.7%
- viability, T/C [4]: 47%
- viability, T/C [37]: 69.4%
- viability, T/C [32]: 52.8%
- viability, T/C [7]: 41.3%
- viability, T/C [8]: 35.5%
- viability, T/C [9]: 39.6%
- viability, T/C [10]: 43.9%
- viability, T/C [38]: 72.7%
- viability, T/C [33]: 46.9%
- viability, T/C [13]: 36.4%
- viability, T/C [14]: 34.5%
- viability, T/C [15]: 36.2%
- viability, T/C [16]: 21.8%
- viability, T/C [39]: 0.58%
- viability, T/C [34]: 0.79%
- viability, T/C [19]: 0.11%
- viability, T/C [20]: 0.06%
- viability, T/C [21]: 0.24%
- viability, T/C [22]: 0.25%
- viability, T/C [40]: 0.56%
- viability, T/C [35]: 0.69%
- viability, T/C [25]: 0.91%
- viability, T/C [26]: 0.68%
- viability, T/C [27]: 0.69%
- viability, T/C [28]: 0.69%

Compound: CCNC(=O)CC1N=C(c2ccc(Cl)cc2)c2cc(OC)ccc2-n2c(C)nnc21 (stereo not given) + CNCc1ccccc1-c1csc(C(C)Nc2nc(C)nc3cc(OC)c(OC)cc23)c1
- IC50 (second compound 0.1 µM): 1390 nM
- IC50 (second compound 0.316 µM): 478 nM
- IC50 (second compound 1 µM): 382 nM
- IC50 (second compound 3.16 µM): < 31.6 nM
- IC50 (second compound 10 µM): < 31.6 nM
- viability, T/C [1]: 88%
- viability, T/C [2]: 76.8%
- viability, T/C [3]: 59%
- viability, T/C [4]: 55.8%
- viability, T/C [5]: 43.4%
- viability, T/C [6]: 34%
- viability, T/C [7]: 69.5%
- viability, T/C [8]: 69.6%
- viability, T/C [9]: 53.4%
- viability, T/C [10]: 41%
- viability, T/C [11]: 36.3%
- viability, T/C [12]: 29.8%
- viability, T/C [13]: 77.6%
- viability, T/C [14]: 64%
- viability, T/C [15]: 52.6%
- viability, T/C [16]: 40.3%
- viability, T/C [17]: 33.1%
- viability, T/C [18]: 28%
- viability, T/C [19]: 1.88%
- viability, T/C [20]: 1.54%
- viability, T/C [21]: 0.18%
- viability, T/C [22]: 1.98%
- viability, T/C [23]: 0.12%
- viability, T/C [24]: 0.21%
- viability, T/C [25]: 1.35%
- viability, T/C [26]: 1.7%
- viability, T/C [27]: 0.26%
- viability, T/C [28]: 0.21%
- viability, T/C [29]: 0.2%
- viability, T/C [30]: 0.28%

Compound: Cn1nccc1Nc1nccc(-c2cc3c(s2)C(C)(C)N(CCN2CCOCC2)C3=O)n1 + CNCc1ccccc1-c1csc(C(C)Nc2nc(C)nc3cc(OC)c(OC)cc23)c1
- IC50 (second compound 0.1 µM): 1640 nM
- IC50 (second compound 0.316 µM): 1170 nM
- IC50 (second compound 1 µM): 1030 nM
- IC50 (second compound 3.16 µM): < 31.6 nM
- IC50 (second compound 10 µM): < 31.6 nM
- viability, T/C [1]: 73.9%
- viability, T/C [2]: 76.8%
- viability, T/C [3]: 64%
- viability, T/C [4]: 55.7%
- viability, T/C [5]: 43.5%
- viability, T/C [6]: 35.9%
- viability, T/C [7]: 77.7%
- viability, T/C [8]: 62.6%
- viability, T/C [9]: 64.6%
- viability, T/C [10]: 50.2%
- viability, T/C [11]: 42.2%
- viability, T/C [12]: 32.5%
- viability, T/C [13]: 62%
- viability, T/C [14]: 62%
- viability, T/C [15]: 58.6%
- viability, T/C [16]: 48.2%
- viability, T/C [17]: 41.3%
- viability, T/C [18]: 34.1%
- viability, T/C [19]: 0.13%
- viability, T/C [20]: 0.11%
- viability, T/C [21]: 0.1%
- viability, T/C [22]: 2.37%
- viability, T/C [23]: 0.1%
- viability, T/C [24]: 0.18%
- viability, T/C [25]: 0.14%
- viability, T/C [26]: 0.68%
- viability, T/C [27]: 0.13%
- viability, T/C [28]: 0.38%
- viability, T/C [29]: 0.22%
- viability, T/C [30]: 0.23%

Compound: Cn1ncnc1[C@H]1c2n[nH]c(=O)c3cc(F)cc(c23)N[C@@H]1c1ccc(F)cc1 + CNCc1ccccc1-c1csc(C(C)Nc2nc(C)nc3cc(OC)c(OC)cc23)c1
- IC50 (second compound 0.1 µM): 18.4 nM
- IC50 (second compound 0.316 µM): 10.7 nM
- IC50 (second compound 1 µM): 5.81 nM
- IC50 (second compound 3.16 µM): < 0.316 nM
- IC50 (second compound 10 µM): < 0.316 nM
- viability, T/C (second compound 0.1 µM, first compound 0.000316 µM): 84%
- viability, T/C (second compound 0.1 µM, first compound 0.001 µM): 81.7%
- viability, T/C [36]: 81.6%
- viability, T/C [31]: 62.9%
- viability, T/C [1]: 38%
- viability, T/C [2]: 19.7%
- viability, T/C (second compound 0.316 µM, first compound 0.000316 µM): 72.8%
- viability, T/C (second compound 0.316 µM, first compound 0.001 µM): 70.2%
- viability, T/C [37]: 61.7%
- viability, T/C [32]: 54.4%
- viability, T/C [7]: 28.2%
- viability, T/C [8]: 19.9%
- viability, T/C (second compound 1 µM, first compound 0.000316 µM): 63.2%
- viability, T/C (second compound 1 µM, first compound 0.001 µM): 68.8%
- viability, T/C [38]: 53.7%
- viability, T/C [33]: 44.5%
- viability, T/C [13]: 30.9%
- viability, T/C [14]: 21.7%
- viability, T/C (second compound 3.16 µM, first compound 0.000316 µM): 0.09%
- viability, T/C (second compound 3.16 µM, first compound 0.001 µM): 0.09%
- viability, T/C [39]: 0.1%
- viability, T/C [34]: 0.07%
- viability, T/C [19]: 0.06%
- viability, T/C [20]: 0.15%
- viability, T/C (second compound 10 µM, first compound 0.000316 µM): 0.12%
- viability, T/C (second compound 10 µM, first compound 0.001 µM): 0.11%
- viability, T/C [40]: 0.12%
- viability, T/C [35]: 0.12%
- viability, T/C [25]: 0.16%
- viability, T/C [26]: 0.34%
